Measured values reported in patent US7393818B2 (priority 2003, dated 2008).

How the values were obtained:
[1] = test system: prions; settings: reported in literature; cited from earlier work
[2] = target: Scrapie (sheep) prion protein (Ovis aries, UniProt P23907)
Chain of Scrapie (sheep) prion protein (P23907 25-233 limits assumed): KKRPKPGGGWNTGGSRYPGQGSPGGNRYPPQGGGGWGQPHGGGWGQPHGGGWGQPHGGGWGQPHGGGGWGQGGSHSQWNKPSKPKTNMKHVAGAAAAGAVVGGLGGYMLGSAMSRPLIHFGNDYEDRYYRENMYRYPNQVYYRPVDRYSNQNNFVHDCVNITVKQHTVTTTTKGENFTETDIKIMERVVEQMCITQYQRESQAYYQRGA

Structure (SMILES)	effectiveness against prions [1]	effect on the percentage of samples showing presence of prion ([2]; in the period of the test (one hour soak))	Percentage of Samples Tested where Prion (Scrapie) is Detected ([2]; wires soaked for one hour) [%]
O=CCCCC=O [Glutaraldehyde]	ineffective	–	–
OO [7% Hydrogen Peroxide, hydrogen peroxide]	–	no effect	100
OO [hydrogen peroxide]	ineffective	–	–
C1CO1 [ethylene oxide]	ineffective	–	–
